Reference: PubChem BioAssay AID1963431 (Molecular Pharmacology Branch, DTP, NCI, 2024)

Test system: Rh18 complex spheroid viability, percent test/control
Assay: Anticancer human tumor Rh18 cell line growth inhibition [Asc];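 note: spheroids exposed to compound for 7 days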;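 for viability, T/C: 100% = DMSO vehicle control wells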
Details: for IC50: curve of first compound; for viability, T/C: stronger effect = lower value
Protocol: Multicellular complex tumor spheroid response to apoptosis pathway targeting inhibitors Alrizomadlin, Pelcitoclax, and Dasminapant in combination with a variety of drugs and investigational agents in selected tumor cell lines
The MDM2 inhibitor alrizomadlin, the Bcl-2/Bcl-xL inhibitor pelcitoclax, and the IAPs inhibitor dasminapant were evaluated both individually and in combination with standard of care and investigational anticancer small molecules within a complex spheroid model of solid tumors. . Complex spheroids include a stromal component modeled by human endothelial cells (HUVEC) and fibroblasts modeled by human mesenchymal stem cells (MSCs). The concentration ranges selected for each drug and investigational agent were based upon clinically achievable concentrations if the clinical Cmax of the agent was known.
Compounds. The drugs and investigational agents: alrizomadlin (APG-115; NSC831270), pelcitoclax (APG-1252; NSC835773), dasminapant (APG-1387;NSC834197), TAK-243 (NSC785004), copanlisib (NSC809693), olaparib (NSC753686), talazoparib (NSC767125), cobimetinib (NSC 768068), eltanexor (KPT-8602, NSC 794443), abemaciclib (NSC 768073), sotorasib (NSC818433), adagrasib (NSC 831453), MRTX-1133 (NSC 836407), Iadademestat (ORY1001, NSC 806812), and RMC-4630 (NSC839698), were obtained from the NCI Developmental Therapeutics Program Chemical Repository. The FDA-approved anticancer drug set is available from the Developmental Therapeutics Program at https://dtp.cancer.gov/organization/dscb/obtaining/available plates.htm. […] The stock solutions were prepared in dimethyl sulfoxide (DMSO, Sigma-Aldrich, St. Louis, MO, cat. D2650) at 800-fold the tested concentration and stored at -70 degrees C prior to their use. All drugs and investigational agents were tested over a range starting from a high concentration at or near the clinical Cmax and decreasing in half-log increments. If the clinical Cmax for an agent had not been determined, the highest concentration tested was 10 microM.
The patient-derived cancer (PDC) cell lines include five colon adenocarcinomas: 186277-243-T-J2-PDC, 616215-338-R-J1-PDC, 439559-082-T-J2-PDC, 463943-066-T-J2-PDC, and 519858-162-T-J1-PDC; three pancreatic carcinomas: 323965-272-R-J2-PDC, 521955-158-R6-J3-PDC, and 521955-158-R2-J5-PDC; two uterine sarcomas: 327498-152-R-J2-PDC and 993429-296-R-J1-PDC; two rhabdomyosarcomas: 755483-174-R-J1-PDC and 772245-204-R-J1-PDC; two soft tissue sarcomas: 126254-015-R-J1-PDC and 494315-158-R-J1-PDC; two malignant fibrous histiocytomas: 317291-083-R-J1-PDC and 596521-263-R-J1-PDC; two breast carcinomas: 171881-019-R-J1-PDC and 885512-296-R-J2-PDC; and one ovarian carcinoma: 6556581-035-R-J-PDC were obtained from the NCI PDMR, (https://pdmr.cancer.gov). The established cell lines HSSY-2 synovial sarcoma (RRID:CVCL 8719), SYO-1 synovial sarcoma (RRID:CVCL_7146), MPNST malignant peripheral neural sheath tumor were obtained from the Sloan Kettering Institute. The following established cell lines were purchased from the American Type Culture Collection (ATCC, Manassas, VA), Sor the received from the NCI repository:, PANC-1 pancreatic carcinoma (CRL-1469, RRID:CVCL_0480), OVCAR-5 ovarian carcinoma (RRID:CVCL_1628), OVCAR-8 ovarian carcinoma (RRID:CVCL_1629), , MCF-7 breast carcinoma (CRL-12584, RRID:CVCL_0031), MDA-MB-231 breast carcinoma (CRL-12532, RRID:CVCL_0062), NCI-H1876 small cell lung carcinoma (CRL-5902, RRID:CVCL_1503), NCI-H510A small cell lung carcinoma (HTB-184, RRID:CVCL_1565), NCI-H1417 (CRL-5869, RRID:CVCL_1469), and NCI-H196 small cell lung carcinoma (CRL-5823, RRID:CVCL_1509). Dr. Peter Houghton (Greehey Children's Cancer Research Institute, University of Texas Health Science Center, San Antonio, TX) provided Rh-18 rhabdomyosarcoma (RRID:CVCL_1659). Pooled donor human umbilical vein endothelial cells (HUVEC, Lonza, cat. CC-2519) and human mesenchymal stem cells (hMSC, Lonza, cat. PT-2501) were purchased from Lonza (Walkersville, MD).
Cell Culture. […]

NC(=O)C(=Cn1cnc(-c2cc(C(F)(F)F)cc(C(F)(F)F)c2)n1)c1cncnc1 + CNC(C)C(=O)NC1CN(S(=O)(=O)c2cccc(S(=O)(=O)N3CCC4CCC(C(=O)NC(c5ccccc5)c5ccccc5)N4C(=O)C(NC(=O)C(C)NC)C3)c2)CCC2CCC(C(=O)NC(c3ccccc3)c3ccccc3)N2C1=O
IC50 (second compound 0.01 µM): 6.12 nM | IC50 (second compound 0.0316 µM): 3.91 nM | IC50 (second compound 0.1 µM): 15 nM | IC50 (second compound 0.316 µM): 4.49 nM | IC50 (second compound 1 µM): < 0.949 nM | viability, T/C (second compound 0.01 µM, first compound 0.000949 µM): 56.6% | viability, T/C (second compound 0.01 µM, first compound 0.003 µM): 53.5% | viability, T/C (second compound 0.01 µM, first compound 0.00949 µM): 49.4% | viability, T/C (second compound 0.01 µM, first compound 0.03 µM): 39.7% | viability, T/C (second compound 0.01 µM, first compound 0.0949 µM): 42% | viability, T/C (second compound 0.01 µM, first compound 0.3 µM): 32.8% | viability, T/C (second compound 0.0316 µM, first compound 0.000949 µM): 74.8% | viability, T/C (second compound 0.0316 µM, first compound 0.003 µM): 51.3% | viability, T/C (second compound 0.0316 µM, first compound 0.00949 µM): 40.7% | viability, T/C (second compound 0.0316 µM, first compound 0.03 µM): 43.8% | viability, T/C (second compound 0.0316 µM, first compound 0.0949 µM): 38.7% | viability, T/C (second compound 0.0316 µM, first compound 0.3 µM): 31.4% | viability, T/C (second compound 0.1 µM, first compound 0.000949 µM): 50.5% | viability, T/C (second compound 0.1 µM, first compound 0.003 µM): 56.4% | viability, T/C (second compound 0.1 µM, first compound 0.00949 µM): 49.7% | viability, T/C (second compound 0.1 µM, first compound 0.03 µM): 47.6% | viability, T/C (second compound 0.1 µM, first compound 0.0949 µM): 33.1% | viability, T/C (second compound 0.1 µM, first compound 0.3 µM): 27.7% | viability, T/C (second compound 0.316 µM, first compound 0.000949 µM): 52% | viability, T/C (second compound 0.316 µM, first compound 0.003 µM): 60.1% | viability, T/C (second compound 0.316 µM, first compound 0.00949 µM): 38.7% | viability, T/C (second compound 0.316 µM, first compound 0.03 µM): 29.7% | viability, T/C (second compound 0.316 µM, first compound 0.0949 µM): 34.3% | viability, T/C (second compound 0.316 µM, first compound 0.3 µM): 24.9% | viability, T/C (second compound 1 µM, first compound 0.000949 µM): 46% | viability, T/C (second compound 1 µM, first compound 0.003 µM): 39.5% | viability, T/C (second compound 1 µM, first compound 0.00949 µM): 38% | viability, T/C (second compound 1 µM, first compound 0.03 µM): 37.8% | viability, T/C (second compound 1 µM, first compound 0.0949 µM): 34.3% | viability, T/C (second compound 1 µM, first compound 0.3 µM): 25.6%

C=CC(=O)N1CCN(c2nc(=O)n(-c3c(C)ccnc3C(C)C)c3nc(-c4c(O)cccc4F)c(F)cc23)C(C)C1 (stereo not given) + CCN1C(C(=O)NC23CCC(C(=O)O)(CC2)CC3)C(c2cccc(Cl)c2F)C2(C(=O)Nc3cc(Cl)ccc32)C12CCCCC2
IC50 (second compound 0.03 µM): < 31.6 nM | IC50 (second compound 0.0949 µM): < 31.6 nM | IC50 (second compound 0.3 µM): < 31.6 nM | IC50 (second compound 0.949 µM): < 31.6 nM | IC50 (second compound 3 µM): < 31.6 nM | viability, T/C (second compound 0.03 µM, first compound 0.0316 µM): 37.6% | viability, T/C (second compound 0.03 µM, first compound 0.1 µM): 36.2% | viability, T/C (second compound 0.03 µM, first compound 0.316 µM): 46.5% | viability, T/C (second compound 0.03 µM, first compound 1 µM): 46.7% | viability, T/C (second compound 0.03 µM, first compound 3.16 µM): 58.2% | viability, T/C (second compound 0.03 µM, first compound 10 µM): 60.7% | viability, T/C (second compound 0.0949 µM, first compound 0.0316 µM): 23.6% | viability, T/C (second compound 0.0949 µM, first compound 0.1 µM): 19.3% | viability, T/C (second compound 0.0949 µM, first compound 0.316 µM): 24.4% | viability, T/C (second compound 0.0949 µM, first compound 1 µM): 23.5% | viability, T/C (second compound 0.0949 µM, first compound 3.16 µM): 30.1% | viability, T/C (second compound 0.0949 µM, first compound 10 µM): 25.4% | viability, T/C (second compound 0.3 µM, first compound 0.0316 µM): 13.3% | viability, T/C (second compound 0.3 µM, first compound 0.1 µM): 13.7% | viability, T/C (second compound 0.3 µM, first compound 0.316 µM): 15% | viability, T/C (second compound 0.3 µM, first compound 1 µM): 12.9% | viability, T/C (second compound 0.3 µM, first compound 3.16 µM): 15.6% | viability, T/C (second compound 0.3 µM, first compound 10 µM): 16% | viability, T/C (second compound 0.949 µM, first compound 0.0316 µM): 9.37% | viability, T/C (second compound 0.949 µM, first compound 0.1 µM): 9.94% | viability, T/C (second compound 0.949 µM, first compound 0.316 µM): 11.2% | viability, T/C (second compound 0.949 µM, first compound 1 µM): 9.73% | viability, T/C (second compound 0.949 µM, first compound 3.16 µM): 14.4% | viability, T/C (second compound 0.949 µM, first compound 10 µM): 12.8% | viability, T/C (second compound 3 µM, first compound 0.0316 µM): 9.88% | viability, T/C (second compound 3 µM, first compound 0.1 µM): 10% | viability, T/C (second compound 3 µM, first compound 0.316 µM): 9.57% | viability, T/C (second compound 3 µM, first compound 1 µM): 11.9% | viability, T/C (second compound 3 µM, first compound 3.16 µM): 13.1% | viability, T/C (second compound 3 µM, first compound 10 µM): 14.1%
